According to patent US20090326064A1, “Pesticidal composition” (priority 2006, published 2009):

Legend:
Type in all cases: physicochemical
[1] = Stability in general-use solvents; conditions: such as acidic or alkaline aqueous solutions
Vapor pressure = conditions: at 25° C.
[2] = Stability under solar light

CC=CC1C(C(=O)OCc2c(F)c(F)c(COC)c(F)c2F)C1(C)C (stereo not drawn) [Compound A, 2,3,5,6-tetrafluoro-4-methoxymethylbenzyl 1R-trans-3-(1-propenyl(E/Z=1/8))-2,2-dimethylcyclopropanecarboxylate]
stability in various general-use solvents [1]: stable
vapor pressure (Vapor pressure): 1.96×10^−3 Pa
stability under solar light [2]: very stable
